The test system of assay [1] is E-cadherin linker segment. The assay can be described thus: Titration of immunized mice sera against the E-cadherin linker segment peptides (FIG. 6). It counts as binding. The settings on record: immunization of mice. The text has this: Polyclonal antibodies against synthetic peptides pep_VLS02 (RKAQPVEAGLQIPAC; SEQ ID NO: 4) and pep_VLS03 (VEAGLQIPAC; SEQ ID NO: 3) were produced according to methods known in the art.

The next assay has as its target MMP-9 (Homo sapiens, UniProt P14780). The assay can be described thus: MMP-9 enzymatic activity / E-cadherin cleavage assay. It counts as biochemical. How it is done:
The synthetic peptide pep_VLS02 was used as a competitive inhibitor of MMP-9. The MMP-9 enzymatic activity is reduced in the presence of synthetic peptide (FIG. 10). The inhibitory effect of pep_VLS02 against cleavage of E-cadherin opens a new window for the development of new inhibitors.
On the other hand, when the polyclonal antibody pAb_VLS02 is added to the assay, in the presence of its corresponding peptide, the MMP-9 activity was reestablished (FIG. 10). Thus, pep_VLS02 and its correspondent polyclonal antibody modulate MMP-9 activity and inhibit the E-cadherin cleavage.

Sequence of MMP-9 (P14780 94-707, species assumed): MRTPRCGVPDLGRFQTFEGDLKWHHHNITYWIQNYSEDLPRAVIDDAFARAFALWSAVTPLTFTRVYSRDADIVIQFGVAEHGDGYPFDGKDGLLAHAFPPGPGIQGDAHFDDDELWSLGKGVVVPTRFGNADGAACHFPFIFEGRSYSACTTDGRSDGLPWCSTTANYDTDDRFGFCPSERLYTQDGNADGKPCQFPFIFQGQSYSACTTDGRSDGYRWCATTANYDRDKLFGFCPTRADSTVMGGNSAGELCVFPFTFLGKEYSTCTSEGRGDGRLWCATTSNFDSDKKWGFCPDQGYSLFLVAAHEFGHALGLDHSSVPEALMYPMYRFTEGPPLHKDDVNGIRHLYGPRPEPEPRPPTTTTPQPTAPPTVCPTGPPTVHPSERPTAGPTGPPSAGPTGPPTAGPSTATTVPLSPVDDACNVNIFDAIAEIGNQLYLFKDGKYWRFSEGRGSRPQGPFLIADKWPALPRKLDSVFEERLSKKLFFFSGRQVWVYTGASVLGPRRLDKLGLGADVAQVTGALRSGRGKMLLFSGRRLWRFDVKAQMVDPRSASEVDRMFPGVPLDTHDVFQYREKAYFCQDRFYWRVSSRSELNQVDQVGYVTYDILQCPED

For “VEAGLQIPAC [pep_VLS03, synthetic antigenic peptide of the E-cadherin linker segment plus a cysteine residue]”, in assay [1], the immunogenic capacity entry is “confirmed the immunogenic capacity”.
“RKAQPVEAGLQIPAC [pep_VLS02, synthetic antigenic peptide covering the cleavage site of E-cadherin plus a cysteine residue at the end]”: the “E-cadherin cleavage by a metalloprotease” value in the assay with MMP-9 (FIG. 10) was “inhibit E-cadherin cleavage”. Moreover, in the assay with MMP-9 (in the presence of synthetic peptide as competitive inhibitor), the MMP-9 enzymatic activity result is recorded as “reduced”. The immunogenic capacity result in assay [1] is “confirmed the immunogenic capacity”.

These data come from patent publication US10738127B2, “Monoclonal antibodies prevent cell surface protein shedding and block tumor growth” (VERITAS BIOTECNOLOGIA LTDA, priority 2016, dated 2020).
